The source made the active and inactive calls. The calls are words filed in the database; no cut-off is given here.
Assays:
Conditions in all cases: Stomach
[1] = system: Gastric fundus smooth muscle; test: Myorelaxant activity in noradrenaline-precontracted New Zealand Oryctolagus cuniculus (rabbit) gastric fundus smooth muscle strips in presence of small-conductance Ca2+-activated K+ channel blocker apamine; assay type: functional
[2] = species: Oryctolagus cuniculus; test: Activation of potassium channel in noradrenaline-precontracted New Zealand Oryctolagus cuniculus (rabbit) gastric fundus smooth muscle strips assessed as muscle relaxant activity; assay type: tissue-based
[3] = species: Oryctolagus cuniculus; test: Activation of potassium channel in noradrenaline-precontracted New Zealand Oryctolagus cuniculus (rabbit) gastric fundus smooth muscle strips assessed as muscle relaxant activity relative to control; assay type: tissue-based
[4] = system: Gastric fundus smooth muscle; test: Myorelaxant activity in noradrenaline-precontracted New Zealand Oryctolagus cuniculus (rabbit) gastric fundus smooth muscle strips in presence of K-ATP channel blocker glibenclamide; assay type: functional
[5] = system: Gastric fundus smooth muscle; test: Myorelaxant activity in noradrenaline-precontracted New Zealand Oryctolagus cuniculus (rabbit) gastric fundus smooth muscle strips in presence of KV blocker 4-aminopyridine
[6] = system: Gastric fundus smooth muscle; test: Myorelaxant activity in noradrenaline-precontracted New Zealand Oryctolagus cuniculus (rabbit) gastric fundus smooth muscle strips in presence of Ca2+-activated K+ channel blocker TEA; assay type: functional
[7] = system: Gastric fundus smooth muscle; test: Myorelaxant activity in noradrenaline-precontracted New Zealand Oryctolagus cuniculus (rabbit) gastric fundus smooth muscle strips in presence of large-conductance Ca2+-activated K+ channel blocker iberiotoxin; assay type: functional

Row | SMILES | Emax [1] | pD2 [2] | Emax [3] | Emax [4] | Emax [5] | Emax [6] | Emax [7]
1 | CC1CC(=O)C2=C(C1)NC1=C(C(=O)CC(C)C1)C2c1ccccc1[N+](=O)[O-] (configuration not stated) | inactive | inactive | inactive | inactive | inactive | inactive | inactive
2 | CC1CC(=O)C2=C(C1)NC1=C(C(=O)CC(C)C1)C2c1ccc(C(F)(F)F)cc1 (configuration not stated) | 26.7% | 4.68 | 33.8% | 43.8% | 14% | 35.1% | 43.3%
3 | CC1CC(=O)C2=C(C1)NC1=C(C(=O)CC(C)C1)C2c1ccccc1F (configuration not stated) | inactive | inactive | inactive | inactive | inactive | inactive | inactive
4 | CC1CC(=O)C2=C(C1)NC1=C(C(=O)CC(C)C1)C2c1ccc(F)cc1 (configuration not stated) | 39.3% | 4.6 | 37.2% | 46.7% | 21.8% | 18.8% | 39.1%
5 | CC(N/C(=N\C#N)Nc1ccncc1)C(C)(C)C (configuration not stated) |  | 4.9 | 73.5% |  |  |  | 
6 | CC1CC(=O)C2=C(C1)NC1=C(C(=O)CC(C)C1)C2c1cccc([N+](=O)[O-])c1 (configuration not stated) | 35.3% | 4.57 | 62.1% | 51.8% | 54.1% | 54.6% | 54.4%
7 | CC1CC(=O)C2=C(C1)NC1=C(C(=O)CC(C)C1)C2c1ccc(C#N)cc1 (configuration not stated) | 45.7% | 4.57 | 46% | 45.2% | 51.1% | 45.2% | 52%
8 | CC1CC(=O)C2=C(C1)NC1=C(C(=O)CC(C)C1)C2c1cccc(C(F)(F)F)c1 (configuration not stated) | inactive | inactive | inactive | inactive | inactive | inactive | inactive
9 | CC1CC(=O)C2=C(C1)NC1=C(C(=O)CC(C)C1)C2c1cccc(C#N)c1 (configuration not stated) | 60.6% | 4.7 | 56% | 66% | 32.3% | 44.6% | 30.9%
10 | CC1CC(=O)C2=C(C1)NC1=C(C(=O)CC(C)C1)C2c1ccccc1C(F)(F)F (configuration not stated) | inactive | inactive | inactive | inactive | inactive | inactive | inactive
11 | CC1CC(=O)C2=C(C1)NC1=C(C(=O)CC(C)C1)C2c1ccc([N+](=O)[O-])cc1 (configuration not stated) | 54.5% | 4.66 | 53.9% | 52% | 51.4% | 74.4% | 82.5%

From ChEMBL document CHEMBL3046869, “Investigation of myorelaxant activity of 9-aryl-3,4,6,7-tetrahydroacridine-1,8-(2H,5H,9H,10H)-diones in isolated rabbit gastric fundus” (2012)
